Our source for the viability values is article PMC12040169 (PLOS Biology, 2025).

The nature of the data set: in vitro. To be noted: human, hela cells, % viability.
What is called viability is a read-out of living cells in per cent, often relative to untreated cells. Turning to `COc1ccc2c(-c3ccccc3)cc(=O)n(CCS(=O)(=O)Oc3ccccc3)c2c1` [CBK296621], the viability at 28.5 h, 10 µM was 84.6%.

For `O=C(c1ccc(OC(F)(F)F)cc1)N1CCN(c2nnnn2-c2ccccc2)CC1` [CBK296622], the viability at 28.5 h, 10 µM worked out at 93.5%.

For `CCOC(=O)c1sc(NS(=O)(=O)c2ccc(C(=O)O)cc2)cc1C` [CBK296623], the viability at 28.5 h, 10 µM is 100%. As to `COc1ccc(COC(=O)C2CC(=O)N(Cc3ccc(C)cc3)C2)cc1` (centres unmarked) [CBK296624], the viability at 28.5 h, 10 µM was found to be 89%. As to `Cc1nc2c(cc(OCC(O)COc3ccc(C#N)cc3)c3ccsc32)s1` (centres unmarked) [CBK296632], the viability at 28.5 h, 10 µM amounted to 84.6%. For `Cc1cccc(-c2n[nH]c(=S)n2CC(=O)Nc2cccc(C#Cc3ccccn3)c2)c1` [CBK296633], the viability at 28.5 h, 10 µM was 92.8%.

Regarding `COc1cccc(CC(=O)Nc2nc(Cc3n[nH]c(=S)n3C)cs2)c1` [CBK296634], the viability at 28.5 h, 10 µM amounted to 98.5%.

As to `COc1cc(NC(=O)CC2(CC(=O)O)CCCCC2)ccc1N1CCCC1=O` [CBK296637], the viability at 28.5 h, 10 µM came to 105%. In the case of `Cc1ccc(S(=O)(=O)Nc2cccc(NC(=O)c3ccco3)c2)cc1C(=O)O` [CBK296638], the viability at 28.5 h, 10 µM was found to be 105%. As to `O=C(Nc1ccccc1C(=O)NCCCc1nc2ccccc2[nH]1)c1cccs1` [CBK296641], the viability at 28.5 h, 10 µM is 107%. For `CN(CCCn1c(=S)[nH]c2ccccc2c1=O)C1CCCCC1` [CBK296642] the value was 103%. `Cc1oc2nc(CSc3ccc4ccccc4c3)[nH]c(=O)c2c1C(=O)O` [CBK296645]: the viability at 28.5 h, 10 µM turned out to be 92.4%. Take `CC(C)CCCC(C)NC(=O)COc1cc(C(=O)O)cc(C(=O)O)c1` (centres unmarked) [CBK296646]: the viability at 28.5 h, 10 µM worked out at 86.8%.

Regarding `Cc1nc2ccc(C(=O)N3CCN(C(=O)c4ccc(Cl)cc4)CC3)cc2nc1C` [CBK296647], the viability at 28.5 h, 10 µM came out at 85%. With `CCOc1ccc(N2C(=O)CC(Nc3cc(C(=O)O)ccc3C)C2=O)cc1` (centres unmarked) [CBK296651], the viability at 28.5 h, 10 µM was 97.1%. Take `CC(C)(C)C(=O)NCCCC(=O)Nc1nc2ccc(Oc3ccccc3)cc2s1` [CBK296652]: the viability at 28.5 h, 10 µM was found to be 97.9%. Consider `CCCCn1c(SCC(O)COCc2ccc(OC)c(OC)c2)n[nH]c1=O` (centres unmarked) [CBK296653], for which the viability at 28.5 h, 10 µM was determined as 99.3%. For `Cc1cc(CN2CCN(c3nc(-c4ccccc4)nc4ccccc34)CC2)no1` [CBK296654], the viability at 28.5 h, 10 µM stood at 87.7%. For `COc1ccc(NC(=O)CCSCCC(=O)O)cc1S(=O)(=O)N1CCCCC1` [CBK296655] the value was 80.3%; for `CC(=O)Nc1ccc(NC(=O)CCn2c(-c3cccc(C)c3)n[nH]c2=S)cc1Cl` [CBK296656], 99.3%.

As for `Cc1nc(C(=O)N(C)C(C)c2cc3ccccc3o2)nn1-c1ccc(F)cc1` (centres unmarked) [CBK296657], the viability at 28.5 h, 10 µM is 108%. Regarding `O=C(O)c1ccc(S(=O)(=O)Nc2ccc(OC3CCCC3)cc2)cc1` [CBK296658], the viability at 28.5 h, 10 µM turned out to be 110%. Take `O=C(CCNS(=O)(=O)c1ccccc1)OCc1ccc([N+](=O)[O-])cc1` [CBK296659]: the viability at 28.5 h, 10 µM stood at 94.4%.

Turning to `CC(=O)c1ccc(C(=O)N(C)Cc2ccc(F)cc2)s1` [CBK296660], the viability at 28.5 h, 10 µM is 99.8%. Turning to `CC12CCC(=O)N1C(C(=O)NCCNc1ccc(S(C)(=O)=O)cc1[N+](=O)[O-])CS2` (centres unmarked) [CBK296661], the viability at 28.5 h, 10 µM was 87.6%. For `O=C(Nc1cccc(-c2nnco2)c1)C1CCCCC1` [CBK296662] the value was 86.2%.

In the case of `CCN(CC)C(=O)c1cccc(NS(=O)(=O)c2ccc(C)c(C(=O)O)c2)c1` [CBK296665], the viability at 28.5 h, 10 µM is 111%.

For `COc1cc(Cl)c(C)cc1NC(=O)C1CC=CCC1C(=O)O` (centres unmarked) [CBK296667], the viability at 28.5 h, 10 µM amounted to 94.1%. For the compound `CC(C)(Oc1ccc(Cl)cc1)C(=O)Nc1ccc(CN2C(=O)CNC2=O)cc1` [CBK296668], the viability at 28.5 h, 10 µM was determined as 103%. `COc1ccccc1NS(=O)(=O)c1ccc(C)c(C(=O)NCC(c2ccco2)N2CCCCC2)c1` (centres unmarked) [CBK296669]: the viability at 28.5 h, 10 µM amounted to 81.3%. For `COC(=O)CNC(=O)C1CC(=O)N(c2ccccc2Br)C1` (centres unmarked) [CBK296672], the viability at 28.5 h, 10 µM came to 97.1%. As for `O=C(CCc1ccc(S(=O)(=O)NC2CC2)cc1)N1CCCC1c1ccncc1` (centres unmarked) [CBK296673], the viability at 28.5 h, 10 µM is 106%.

For `CCC(C)(C)C1CCC(NC(=O)CSCCC(=O)O)CC1` (centres unmarked) [CBK296674], the viability at 28.5 h, 10 µM worked out at 107%. As to `Cc1ccc2nc(C)cc(C(=O)OCc3ccc(C(N)=O)cc3)c2c1` [CBK296676], the viability at 28.5 h, 10 µM is 97.8%.

Regarding `CN(Cc1ccccc1NCCn1c(=O)oc2ccccc21)C1CCCCC1` [CBK296678], the viability at 28.5 h, 10 µM came to 78.1%. Take `CC(C)Cn1c(SCC(=O)Nc2ccc(OC(F)F)cc2)nc(O)cc1=O` [CBK296679]: the viability at 28.5 h, 10 µM was 91.2%. For the compound `COC(=O)c1ccc(NS(=O)(=O)c2ccc(C)c(C(=O)O)c2)c(C)c1` [CBK296684], the viability at 28.5 h, 10 µM is 105%.

For the compound `Cc1cc(C(=O)Nc2nc(Cc3n[nH]c(=S)n3C)cs2)sc1C` [CBK296687], the viability at 28.5 h, 10 µM stood at 68.5%. Take `Cc1ccc(C(=O)O)cc1S(=O)(=O)Nc1ccc(-c2cn3ccsc3n2)cc1` [CBK296688]: the viability at 28.5 h, 10 µM was 85.2%. As to `Cc1nc(NC(=O)Cc2c(C)nn(CC(C)C)c2C)sc1-c1n[nH]c(=S)n1C` [CBK296691], the viability at 28.5 h, 10 µM stood at 88.6%. Regarding `CN(Cc1ccccc1N1CCOCC1)C(=O)c1ccc2ncsc2c1` [CBK296692], the viability at 28.5 h, 10 µM was 108%. On to `CCC(C)c1ccc(NC(C)C(=O)Nc2ccc3[nH]c(=O)[nH]c3c2)cc1` (centres unmarked) [CBK296694], for which the viability at 28.5 h, 10 µM stood at 92.1%. As for `CN(C)CC(=O)N1CCN(c2ccc(C(=O)c3ccccc3)cc2[N+](=O)[O-])CC1` [CBK296699], the viability at 28.5 h, 10 µM was found to be 85.4%. For `CCn1c(=O)c(C=Cc2cc(OC)c(O)c(OC)c2)nc2cc(C(=O)O)ccc21` [CBK296701], the viability at 28.5 h, 10 µM was 85.1%. For `CC(C)(CC(=O)O)CC(=O)Nc1cc(S(=O)(=O)N2CCCC2)ccc1Cl` [CBK296702] the value was 95.4%; for `CCOc1ccc(C2=NN(C(=O)CCC(=O)O)C(c3ccc4nccnc4c3)C2)cc1` (centres unmarked) [CBK296703], 103%. With `CCOc1cc2c(cc1NS(=O)(=O)c1cc(C(=O)O)ccc1C)OC(C)C2` (centres unmarked) [CBK296711], the viability at 28.5 h, 10 µM was found to be 101%. For `O=C(Nc1cccc(-c2nnn[nH]2)c1)c1ccc(C2CCCCC2)cc1` [CBK296712] the value was 114%; for `O=C(CSCCOc1ccc(Br)cc1)Nc1ccc2c(c1)OCCO2` [CBK296714], 108%. With `O=C(Nc1cccc2ncccc12)c1cccc(Oc2ccccc2)c1` [CBK296716], the viability at 28.5 h, 10 µM is 91.7%. Regarding `NC(=O)C1CCN(C(=O)c2cc(O)nc3ccccc23)CC1` [CBK296719], the viability at 28.5 h, 10 µM was determined as 98.2%.

With `COc1cc(C=CC(=O)O)ccc1OCc1cn2cc(Cl)ccc2n1` [CBK296722], the viability at 28.5 h, 10 µM was found to be 99.1%. On to `Cc1ccc(CCC2CCN(C(=O)c3ccc(O)nc3)CC2)cc1` [CBK296724], for which the viability at 28.5 h, 10 µM came out at 94.4%. For `CCc1ccc(-c2csc(NS(=O)(=O)c3cccc(C(=O)O)c3)n2)cc1` [CBK296726], the viability at 28.5 h, 10 µM is 91%. Take `Cc1ccc(CSCCNS(=O)(=O)c2ccsc2C(=O)O)cc1` [CBK296727]: the viability at 28.5 h, 10 µM amounted to 92.6%.

Consider `COc1ccccc1Oc1ccc(NS(=O)(=O)c2cccc(C(=O)O)c2)cc1` [CBK296728], for which the viability at 28.5 h, 10 µM was determined as 108%. For `Cc1nc(NC(=O)c2ccoc2)sc1C` [CBK296729] the value was 103%.

Turning to `O=C(NCc1ccccc1F)c1cccc(CN2C(=O)CSC2=O)c1` [CBK296730], the viability at 28.5 h, 10 µM came out at 100%.

`CCOc1ccc(-c2nc(CSc3n[nH]c(=O)n3Cc3ccccc3)cs2)cc1` [CBK296737]: the viability at 28.5 h, 10 µM came to 102%. For `CC(c1ccc(S(C)(=O)=O)cc1)N(C)C(=O)COc1ccc2ccccc2c1` (centres unmarked) [CBK296738] the value was 103%. Take `Cc1ccc(-c2n[nH]c(=S)n2CCC(=O)N2CCC(c3c[nH]c4ccccc34)CC2)cc1` [CBK296739]: the viability at 28.5 h, 10 µM worked out at 86.8%. Turning to `O=C(CCN1C(=O)COc2ccccc21)Nc1ccnn1Cc1ccccc1Br` [CBK296740], the viability at 28.5 h, 10 µM was 99.8%. For `COc1ccc(-c2nc(COC(=O)c3cccnc3N)cs2)cc1OC` [CBK296741] the value was 82.6%. `Nc1nc(Cn2nc(-c3ccc(F)cc3)oc2=O)nc(Nc2ccc(F)cc2)n1` [CBK296742]: the viability at 28.5 h, 10 µM worked out at 91.6%. Take `Cc1ccc(C)c(NC(=O)C(C)Sc2nc3ccccc3nc2C)c1` (centres unmarked) [CBK296744]: the viability at 28.5 h, 10 µM came to 106%. For `CCCNC(=O)C(C)Sc1nc2ccsc2c(=O)n1CC` (centres unmarked) [CBK296745], the viability at 28.5 h, 10 µM was determined as 105%. For the compound `COc1ccccc1NC(=O)C1CCN(C(=O)OC(C)(C)C)CC1` [CBK296746], the viability at 28.5 h, 10 µM was determined as 90.5%. On to `CC1CC1C(=O)NCC(=O)N1CCN(S(=O)(=O)c2ccccc2[N+](=O)[O-])CC1` (centres unmarked) [CBK296747], for which the viability at 28.5 h, 10 µM came out at 90.4%.

Turning to `CC(Nc1ccc2[nH]c(=O)[nH]c2c1)C(=O)N1CCN(c2ccccc2)CC1` (centres unmarked) [CBK296748], the viability at 28.5 h, 10 µM stood at 99.4%. For `N#Cc1ccccc1CSCCNC(=O)c1ccc(NC(=O)c2ccco2)s1` [CBK296749] the value was 80.8%; for `C=CCn1c(Cc2csc(NC(=O)c3ccc(OC)cc3O)n2)n[nH]c1=S` [CBK296752], 104%. For `COc1ccc(S(=O)(=O)N2CCN(C(C(=O)O)c3ccc(C)cc3)CC2)cc1` (centres unmarked) [CBK296753], the viability at 28.5 h, 10 µM was determined as 104%. For `COc1cc(N)c(Cl)cc1C(=O)OCc1cc2ccc(C)cc2nc1Cl` [CBK296755] the value was 89.7%; for `NC(=O)C1CCN(C(=O)C2=NN(c3ccccc3)C(c3ccccc3)C2)CC1` (centres unmarked) [CBK296760], 99.1%.

`COc1cc(NC(=O)CC2(C(=O)O)CCCCC2)ccc1N1CCCC1=O` [CBK296761]: the viability at 28.5 h, 10 µM is 109%. Turning to `CCc1nnc(COC(=O)c2ccccc2NC(=O)Cc2ccccc2)o1` [CBK296762], the viability at 28.5 h, 10 µM was found to be 81.5%.

In the case of `Cc1ccc(-n2c(C)cc(C(=O)CSc3n[nH]c(=O)n3C3CC3)c2C)cc1C` [CBK296764], the viability at 28.5 h, 10 µM amounted to 92.3%.
